According to patent US7671045B2, “17-phosphorous steroid derivatives useful as progesterone receptor modulators” (Janssen Pharmaceutica N.V., priority 2006, dated 2010):
Where two headings read alike, the source gives them in different places.

Columns and labels:
[1] = test system: T47D human breast cancer cells; test: Alkaline phosphatase assay in human breast cancer cell line T47D; assay type: cell-based
Experimental: Alkaline Phosphatase Assay in Human Breast Cancer Cell Line T47D
T47D human breast cancer cells were grown in RPMI medium without phenol red (Invitrogen) containing 10% (v/v) heat-inactivated fetal bovine serum (FBS; Hyclone), 1% (v/v) penicillin-streptomycin (Invitrogen), 1% (w/v) glutamine (Invitrogen), and […] insulin (Sigma). Incubation conditions were 37° C. in a humidified 5% (v/v) carbon dioxide environment.
The cells were plated in 96-well tissue culture plates at 10,000 cells per well in assay medium [RPMI medium without phenol red (Invitrogen) containing 5% (v/v) charcoal-treated FBS (Hyclone) and 1% (v/v) penicillin-streptomycin (Invitrogen)]. Two days later, the medium was decanted and test compound or control were added at a final concentration of 0.1% (v/v) dimethyl sulfoxide in fresh assay medium. Twenty-four hours later, an alkaline phosphatase assay was performed using a SEAP kit (BD Biosciences Clontech, Palo Alto, Calif.). Briefly, the medium was decanted and the cells were fixed for 30 minutes at room temperature with 5% (v/v) formalin (Sigma). The cells were washed once with room temperature Hank's buffered saline solution (Invitrogen). Equal volumes (0.05 mL) of 1× Dilution Buffer, Assay Buffer and 1:20 substrate/enhancer mixture were then added. After 1 hour incubation at room temperature in the dark, the lysate was transferred to a white 96-well plate (Dynex) and luminescence was read using a LuminoSkan Ascent (Thermo Electron, Woburn, Mass.).

[2] = test system: A549 Human lung carcinoma cells; test: Transient transfection and Steady Glo luciferase assay in A549 cells with dexamethasone challenge; assay type: cell-based
Experimental: Transient Transfection and Steady Glo Luciferase Assay
A549 Human lung carcinoma cells were grown in F-12K Nutrient Mixture containing 10% (v/v) fetal bovine serum (FBS; Invitrogen), 2 mM glutamine and 0.15% […] (Invitrogen)
A549 cells were split 1 to 3 in 175 cm tissue culture flask. The cells were incubated at 37° C. in CO2 incubator until the cells were 95% confluent (typically 24-30 hours).
The following solutions were prepared in sterile tubes: (a) Solution A: 1.5 μg/ml of DNA in 8.5 ml OPTI-MEM I Reduced Serum Medium. (GIBCO cat# 31985) and (b) Solution B: 6 μl/ml of DMRIE-C Reagent into […] OPTI-MEM I. The two solutions were combined and mixed gently, then incubated at room temperature for 40 minutes.
The A549 cells prepared above were washed with […] of OPTI-MEM I. The medium was removed and 17 ml of the lipid-DNA complex solution was overlayed onto cells. The cells ere then incubated for 16 h at 37° C. in CO2 incubator. The DNA-containing medium was removed and 30 ml of growth medium was added. (5% Charcoal treated FBS) After 5-6 h, the cells were seeded in a 96 well plate and the cells incubated overnight at 37° C. in CO2 incubator.
To each well was then added 5 μl of test compounds and the cells incubated at 37° C. for 10 min. 5 μL of dexamathasone (CAS [50-02-2]), a glucocorticoid agonist, solution was then added to each well for challenger and the cells incubated at 37° C. in CO2 incubator for 24 h. 100 μl of Luc-assay buffer was then added into each cell well and the cells incubated for 30 min at room temperature. A 150 μL sample from each well was then transferred into a DYNEX Microlitel plate and read on Top-counter.

[3] = T47D cells, alkaline phosphatase readout, 24 h with test compound, read-out: T47D IC50
[4] = transfected A549 cells, luciferase readout, challenged with dexamethasone (glucocorticoid agonist), 24 h, read-out: A549 IC50
[5] = T47D, 24 h, read-out: T47D IC50 (nM)
[6] = A549, 24 h, read-out: A549 IC50 (nM)

SMILES	IC50 [1, 3]	IC50 [2, 4]	IC50 [1, 5]	IC50 [2, 6]
CN(C)c1ccc([C@H]2C[C@@]3(C)[C@@H](CC[C@@]3(O)C#CP(=O)(c3ccccc3)c3ccccc3)[C@@H]3CCC4=CC(=O)CCC4=C32)cc1 [Compound 103]	1.57 nM	41.6 nM	–	–
CN(C)c1ccc([C@H]2C[C@@]3(C)[C@@H](CC[C@@]3(O)C#CP(=O)(N3CCOC3=O)N3OCCC3=O)[C@@H]3CCC4=CC(=O)CCC4=C32)cc1 (stereo partly drawn) [Compound 104]	7.25 nM	64 nM	–	–
COP(=S)(C#C[C@]1(O)CC[C@H]2[C@@H]3CCC4=CC(=O)CCC4=C3[C@@H](c3ccc(N(C)C)cc3)C[C@@]21C)OC [Compound 105]	–	–	1.44 nM	55.8 nM
CN(C)c1ccc([C@H]2C[C@@]3(C)[C@@H](CC[C@@]3(O)C#CP(=O)(N(C)C)N(C)C)[C@@H]3CCC4=CC(=O)CCC4=C32)cc1 [Compound 106]	7.53 nM	121 nM	–	–
CCOP(=O)(C#C[C@]1(O)CC[C@H]2[C@@H]3CCC4=CC(=O)CCC4=C3[C@@H](c3ccc(SC)cc3)C[C@@]21C)OCC [Compound 107]	–	–	4.75 nM	454 nM
CCOP(=O)(C#C[C@]1(O)CC[C@H]2[C@@H]3CCC4=CC(=O)CCC4=C3[C@@H](c3ccc(OC)cc3)C[C@@]21C)OCC [Compound 108]	–	–	6.9 nM	72.2 nM
